In PubChem BioAssay (NCI) one finds TGI and GI50 data, which are given here for 14 compounds.

What all share (experiment): inhibition of tumour cell growth, NCI panel, 48 h
Assay [1] has as its system TK-10 renal.
Assay [2] deals with PC-3 prostate.
Assay [3] relates to CAKI-1 renal.
The subject of assay [4] is SNB-19 CNS.
Assay [5] has as its system KM12 colon.
Assay [6] has as its system HCT-116 colon.
For assay [7], the system named is 786-0 renal.
For assay [8], the system named is UACC-62 melanoma.
For assay [9], the system named is EKVX NSCLC.
Assay [10] concerns HT29 colon.
The test system of assay [11] is OVCAR-4 ovarian.

The structures appear in SMILES notation. Several values for one entry are separate records, joined by “and”; a condition that tells them apart may be missing. Equal entries are not always repeated.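 48-hour exposure; five concentrations; linearly interpolated endpoints. GI50 = concentration required for 50% inhibition of growth. The concentration for full growth arrest is given as TGI.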

`CC1C(c2ccccc2)OP(=O)(OC(C#N)c2ccccc2)N1C` (stereo not drawn): the TGI in assay [1], in assay [2], in assay [3], in assay [4], in assay [5] and in [6] was above 100 µM each time. Further, the TGI in assay [7], in assay [8], in assay [9] and in assay [10] was above 100 µM each time.
Turning to `CC1(CCC2C=CCC2)CCCNC1=S` (stereo not drawn), the TGI in assay [1], in assay [2], in assay [4], in assay [5], in [6] and in [7] was above 10 µM each time. For the same compound, the TGI in [8], in [9] and in assay [10] was above 10 µM throughout.
Turning to `N#Cc1c(N)oc(-c2cccc([N+](=O)[O-])c2)c1C#N`, the TGI in assay [1] was 49.7 µM; in assay [2], above 100 µM; in assay [3] it was 43.6 µM; in [4] it was 74.6 µM; in assay [6], above 100 µM; in assay [7], 68.3 µM. Besides, the values for the TGI in [8], in assay [9] and in assay [10] were above 100 µM, above 100 µM and 37.6 µM, respectively.
For `COc1cc2cc(C(=O)N3CC(CCl)c4ccc(O)cc43)[nH]c2c(OC)c1OC` (stereo not drawn), the TGI in assay [1] was 22.4 µM; in [3] it was 0.0201 µM; in [4], 0.453 µM and 0.21 µM; in assay [5], 0.0273 µM; in assay [7], 0.121 µM; in [8], 0.00683 µM. In addition, the TGI in assay [9] is 0.35 µM and 0.749 µM; in assay [10], 0.0107 µM. Also, the GI50 in assay [9] was 0.285 µM.
In the case of `COC(=O)[C@@H]1CN(C(=O)CCc2ccccc2)C(=O)N1C(=O)OCc1ccccc1`, the TGI in [1], in [11], in [3], in [4], in [5] and in assay [6] was above 100 µM each time. Further, the TGI in [7], in assay [8], in assay [9] and in [10] was above 100 µM each time.
Regarding `CC1(C)CC(=O)c2c(nc3ccc4ccccc4c3c2-c2ccc(NC(=O)CCCC(=O)Nc3ccc(-c4c5c(nc6ccc7ccccc7c46)CC(C)(C)CC5=O)cc3)cc2)C1`, the TGI in [1], in assay [2], in assay [3], in [4], in assay [5] and in [6] was above 100 µM throughout. Further, the TGI in assay [7], in assay [8], in [9] and in assay [10] was above 100 µM each time.
On to `O=c1cc(-c2ccccc2)[nH]c2cc(O)ccc12`, for which the TGI in assay [1] is above 100 µM; in assay [11], 58.1 µM; in assay [3], 71.6 µM; in assay [4] it was above 100 µM; in assay [5], 50.7 µM; in [6] it was 31.3 µM. Also, the TGI was above 100 µM in assay [7], 46.5 µM in assay [8], above 100 µM in [9] and 46.1 µM in [10].
Consider `CN(CCO)c1nc2c(c(=O)[nH]1)CCC2`, for which the TGI in assay [1], in assay [11], in [3], in assay [4], in [5] and in [6] was above 100 µM in each case. Also, the TGI in assay [7], in assay [8], in assay [9] and in assay [10] was above 100 µM throughout.
Regarding `COc1ccc2[nH]c3c(c2c1)CCn1c-3nc2ccccc2c1=O`, the TGI in [1], in assay [11], in assay [2], in assay [4], in assay [5] and in [6] was above 25 µM in each case. Moreover, the TGI in assay [7] and in [9] was above 25 µM throughout.
As for `COc1cc2c(c(OC)c1OC)C(=O)[C@H](O)[C@H]2NC(N)=O`, the TGI in assay [1], in assay [2], in assay [3], in assay [4], in assay [5] and in assay [6] was above 100 µM throughout. Further, the TGI was above 100 µM in assay [7], 48.5 µM in assay [8], above 100 µM in assay [9] and above 100 µM in assay [10].
As to `CNC(=O)N1CN(c2ccccc2)C2(CCN(CCCC(=O)c3ccc(F)cc3)CC2)C1=O`, the TGI was 49.5 µM in assay [1]; above 100 µM in assay [2]; above 100 µM in [3]; above 100 µM in assay [4]; 45.9 µM in [5]; 24.6 µM in assay [6]. Further, the TGI in assay [7] was 87.1 µM; in assay [8], 43.4 µM; in [9] it was 52.5 µM; in assay [10], 26.9 µM.
As for `O=c1oc2ccccc2cc1/C=N/N1C(=S)N(c2ccccc2)C(=Nc2ccccc2)C1=Nc1ccccc1`, the TGI in [1], in assay [2], in assay [3], in assay [4], in assay [5] and in assay [6] was above 100 µM throughout. Further, the TGI in assay [7], in assay [8] and in assay [9] was above 100 µM in each case.
For the compound `CCOC1(COP(=O)(OCc2ccccc2)OCc2ccccc2)COC(COP(=O)(OCc2ccccc2)OCc2ccccc2)(OCC)CO1` (stereo not drawn), the TGI in [1], in assay [11], in assay [3], in assay [4], in [5] and in [6] was above 100 µM throughout. The TGI in [7] was above 100 µM; in assay [8] it was above 100 µM; in assay [9], 9.43 µM; in [10], above 100 µM.
Consider `COc1ccc(N2C(=O)C3c4[nH]c5ccc(C)cc5c4C4CCC(C)CC4C3C2=O)cc1` (stereo not drawn), for which the TGI in assay [1], in assay [2], in assay [3], in [4], in assay [6] and in [7] was above 100 µM in each case. Further, the TGI in assay [8], in assay [9] and in assay [10] was above 100 µM in each case.
